System: 233499-124-R-J3-PDC spheroids with HUVEC/MSC, viability
Experiment: Anticancer human tumor 233499-124-R-J3-PDC patient-derived colon adenocarcinoma cell line growth inhibition [PI3K]
Conditions: for IC50: curve of first compound; for viability, T/C: stronger effect = lower value
In short: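 Complex 3D spheroids (cancer cells + endothelial HUVEC + mesenchymal stem cells); drug pairs of targeted agent x inavolisib/alpelisib/duvelisib/copanlisib; half-log series from ~Cmax, max 10 microM if Cmax unknown; endpoint viability.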

[1] = second compound 0.0316 µM, first compound 0.0316 µM
[2] = second compound 0.0316 µM, first compound 0.1 µM
[3] = second compound 0.0316 µM, first compound 0.316 µM
[4] = second compound 0.0316 µM, first compound 1 µM
[5] = second compound 0.1 µM, first compound 0.0316 µM
[6] = second compound 0.1 µM, first compound 0.1 µM
[7] = second compound 0.1 µM, first compound 0.316 µM
[8] = second compound 0.1 µM, first compound 1 µM
[9] = second compound 0.316 µM, first compound 0.0316 µM
[10] = second compound 0.316 µM, first compound 0.1 µM
[11] = second compound 0.316 µM, first compound 0.316 µM
[12] = second compound 0.316 µM, first compound 1 µM
[13] = second compound 1 µM, first compound 0.0316 µM
[14] = second compound 1 µM, first compound 0.1 µM
[15] = second compound 1 µM, first compound 0.316 µM
[16] = second compound 1 µM, first compound 1 µM
[17] = second compound 3.16 µM, first compound 0.0316 µM
[18] = second compound 3.16 µM, first compound 0.1 µM
[19] = second compound 3.16 µM, first compound 0.316 µM
[20] = second compound 3.16 µM, first compound 1 µM
[21] = second compound 10 µM, first compound 0.0316 µM
[22] = second compound 10 µM, first compound 0.1 µM
[23] = second compound 10 µM, first compound 0.316 µM
[24] = second compound 10 µM, first compound 1 µM
[25] = second compound 0.0316 µM, first compound 3.16 µM
[26] = second compound 0.0316 µM, first compound 10 µM
[27] = second compound 0.1 µM, first compound 3.16 µM
[28] = second compound 0.1 µM, first compound 10 µM
[29] = second compound 0.316 µM, first compound 3.16 µM
[30] = second compound 0.316 µM, first compound 10 µM
[31] = second compound 1 µM, first compound 3.16 µM
[32] = second compound 1 µM, first compound 10 µM
[33] = second compound 3.16 µM, first compound 3.16 µM
[34] = second compound 3.16 µM, first compound 10 µM
[35] = second compound 10 µM, first compound 3.16 µM
[36] = second compound 10 µM, first compound 10 µM
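Further: spheroids exposed to agents for seven days before readout.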
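Wherever viability, T/C is given: percent viability relative to DMSO vehicle control taken as 100%.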

CCN1CCN(Cc2ccc(Nc3ncc(F)c(-c4cc(F)c5nc(C)n(C(C)C)c5c4)n3)nc2)CC1 + CC(Nc1ncnc2nc[nH]c12)c1cc2cccc(Cl)c2c(=O)n1-c1ccccc1
IC50 (second compound 0.0316 µM): 0.916 µM
IC50 (second compound 0.1 µM): 0.832 µM
IC50 (second compound 0.316 µM): 0.788 µM
IC50 (second compound 1 µM): 0.963 µM
IC50 (second compound 3.16 µM): 0.214 µM
IC50 (second compound 10 µM): 0.193 µM
viability, T/C (second compound 0.0316 µM, first compound 0.00316 µM): 102%
viability, T/C (second compound 0.0316 µM, first compound 0.01 µM): 93.5%
viability, T/C [1]: 83.2%
viability, T/C [2]: 70.1%
viability, T/C [3]: 61.5%
viability, T/C [4]: 48.5%
viability, T/C (second compound 0.1 µM, first compound 0.00316 µM): 101%
viability, T/C (second compound 0.1 µM, first compound 0.01 µM): 108%
viability, T/C [5]: 86.7%
viability, T/C [6]: 73.8%
viability, T/C [7]: 61.4%
viability, T/C [8]: 47%
viability, T/C (second compound 0.316 µM, first compound 0.00316 µM): 97.1%
viability, T/C (second compound 0.316 µM, first compound 0.01 µM): 87.3%
viability, T/C [9]: 85.4%
viability, T/C [10]: 84.2%
viability, T/C [11]: 66.3%
viability, T/C [12]: 45.2%
viability, T/C (second compound 1 µM, first compound 0.00316 µM): 104%
viability, T/C (second compound 1 µM, first compound 0.01 µM): 90.8%
viability, T/C [13]: 76%
viability, T/C [14]: 83.8%
viability, T/C [15]: 54.3%
viability, T/C [16]: 50.8%
viability, T/C (second compound 3.16 µM, first compound 0.00316 µM): 80.2%
viability, T/C (second compound 3.16 µM, first compound 0.01 µM): 79.2%
viability, T/C [17]: 95.2%
viability, T/C [18]: 72.6%
viability, T/C [19]: 39%
viability, T/C [20]: 32.8%
viability, T/C (second compound 10 µM, first compound 0.00316 µM): 75.9%
viability, T/C (second compound 10 µM, first compound 0.01 µM): 73.7%
viability, T/C [21]: 90.8%
viability, T/C [22]: 57%
viability, T/C [23]: 51%
viability, T/C [24]: 38.4%

Cn1ncc(Cl)c1-c1cc(C(=O)NC(CN)Cc2cccc(F)c2)sc1Cl (stereo unspecified) + CC(Nc1ncnc2nc[nH]c12)c1cc2cccc(Cl)c2c(=O)n1-c1ccccc1
IC50 (second compound 0.0316 µM): 3.2 µM
IC50 (second compound 0.1 µM): 4.73 µM
IC50 (second compound 0.316 µM): 3.13 µM
IC50 (second compound 1 µM): 4.11 µM
IC50 (second compound 3.16 µM): 5.24 µM
IC50 (second compound 10 µM): 5.3 µM
viability, T/C [1]: 70.5%
viability, T/C [2]: 105%
viability, T/C [3]: 60.3%
viability, T/C [4]: 91.5%
viability, T/C [25]: 50.2%
viability, T/C [26]: 26.3%
viability, T/C [5]: 86.4%
viability, T/C [6]: 108%
viability, T/C [7]: 94.2%
viability, T/C [8]: 58.2%
viability, T/C [27]: 75.7%
viability, T/C [28]: 24.7%
viability, T/C [9]: 115%
viability, T/C [10]: 107%
viability, T/C [11]: 70.6%
viability, T/C [12]: 62.7%
viability, T/C [29]: 63.6%
viability, T/C [30]: 28.7%
viability, T/C [13]: 94.8%
viability, T/C [14]: 90.9%
viability, T/C [15]: 86.1%
viability, T/C [16]: 73.5%
viability, T/C [31]: 59.6%
viability, T/C [32]: 24.6%
viability, T/C [17]: 97%
viability, T/C [18]: 98.6%
viability, T/C [19]: 79.1%
viability, T/C [20]: 106%
viability, T/C [33]: 64.5%
viability, T/C [34]: 31.5%
viability, T/C [21]: 94.8%
viability, T/C [22]: 92%
viability, T/C [23]: 108%
viability, T/C [24]: 65.2%
viability, T/C [35]: 69.6%
viability, T/C [36]: 32.4%

Cn1nccc1Nc1nccc(-c2ccn(C(CO)c3ccc(Cl)c(F)c3)c(=O)c2)n1 (stereo unspecified) + CC(Nc1ncnc2nc[nH]c12)c1cc2cccc(Cl)c2c(=O)n1-c1ccccc1
IC50 (second compound 0.0316 µM): > 10 µM
IC50 (second compound 0.1 µM): > 10 µM
IC50 (second compound 0.316 µM): > 10 µM
IC50 (second compound 1 µM): > 10 µM
IC50 (second compound 3.16 µM): > 10 µM
IC50 (second compound 10 µM): > 10 µM
viability, T/C [1]: 108%
viability, T/C [2]: 104%
viability, T/C [3]: 110%
viability, T/C [4]: 88%
viability, T/C [25]: 89%
viability, T/C [26]: 70.8%
viability, T/C [5]: 103%
viability, T/C [6]: 95.6%
viability, T/C [7]: 91.3%
viability, T/C [8]: 65.1%
viability, T/C [27]: 92.8%
viability, T/C [28]: 62.3%
viability, T/C [9]: 108%
viability, T/C [10]: 89.9%
viability, T/C [11]: 90.4%
viability, T/C [12]: 70.8%
viability, T/C [29]: 78.1%
viability, T/C [30]: 68.6%
viability, T/C [13]: 91.7%
viability, T/C [14]: 72.6%
viability, T/C [15]: 72.9%
viability, T/C [16]: 86.3%
viability, T/C [31]: 81.3%
viability, T/C [32]: 69%
viability, T/C [17]: 87%
viability, T/C [18]: 87.9%
viability, T/C [19]: 74.5%
viability, T/C [20]: 89.8%
viability, T/C [33]: 66.3%
viability, T/C [34]: 77.6%
viability, T/C [21]: 76.8%
viability, T/C [22]: 83.8%
viability, T/C [23]: 98%
viability, T/C [24]: 69.9%
viability, T/C [35]: 76.4%
viability, T/C [36]: 51.9%
